Laboratory results as given in US20070196856A1, “Methods of determining activity of ryanodine receptor modulators” (Allergan, Inc., priority 2006, published 2007).

Tested on: ryanodine receptors

Compound: O=C1CN(/N=C/c2ccc(-c3ccc([N+](=O)[O-])cc3)o2)C(O)=N1 [dantrolene, Dantrolene]
- caffeine-induced Ca++ release (1.5 mM caffeine + 20 mM dantrolene, 5 minutes dantrolene pretreatment, retinal ganglion cells, FIG. 1 trace 2): blocked
- caffeine effect after washout (washout of dantrolene with 12.5 mM caffeine alone, FIG. 1 trace 3): recovered partially
